The subject of data set [1] is porcine oocytes. The data set is described as follows: Oocyte mitochondrial temperature detection (Mito Thermo Yellow probe fluorescence). It is filed as cell-based. The method, then: (§1) 100 nM Mito Thermo Yellow dye was added in TL-HEPES-0.3% BSA solution and preheated for 15 min at 37° C. in an incubator containing 5% CO2, the oocytes were moved into the preheated dye solution in the incubator for 15 min and then washed three times with TL-HEPES-0.3% BSA for 10 min each time, the fluorescence intensity was detected by laser confocal microscopy, and the changes of mitochondrial temperature were analyzed.
Metformin can effectively reduce mitochondrial heat production.

Data set [2] concerns porcine oocytes. The data set is described as follows: Parthenogenetic activation of oocytes (cleavage and blastocyst development). On the procedure: After the first polar body was extruded, mature oocytes with uniform cytoplasm were selected for parthenogenetic activation. The oocytes were washed three times with a pre-heated electro-activation solution, and then the oocytes were placed between electrodes filled with the activation solution, the electro-activation solution was 0.3 M mannitol, 0.05 mM CaCl2, 0.1 mM MgCl2, and 0.4% (m/v) bovine serum albumin dissolved in water. An electric fusion meter (Fujihira Industry Co. Ltd, Tokyo, Japan) was used for electrical activation, the electric field intensity was 65 V/mm, the DC pulse duration was 80 μs, and the number of pulses was 1. The activated oocytes were cultured in PZM-3 containing 5 μg/mL cytochalasin B and 10 μg/mL cycloheximide at 38.5° C., 5% CO2 for 4 h. Then the oocytes were washed and cultured in PZM-3 (day 0). The number of cleavage embryos was counted on day 2 and blastocyst formation was recorded on day 7.

In data set [3] the test system is vitrified porcine oocytes. The data set is described as follows: Survival rate detection of vitrified oocytes after thawing (FDA staining). The conditions noted are these: freezing group 71.85%. The format is cell-based. On the procedure: The room temperature was adjusted to 25±1° C. so that the test apparatus and reagents were fully balanced, the experiment was carried out on a 37° C. thermostat, the oocytes were transferred into 20% EG solution for 3 min, and then transferred into the vitrification solution EDFS40 for 30-40 s, the oocytes were then placed on the cryocarrier Cryotop. […] When thawing the oocytes, the Cryotop was taken out from liquid nitrogen, and the oocytes were immediately immersed in PBS containing 1M sucrose (containing 20% FBS) on a thermostatic table (37° C.) for 1 min, and then transferred to PBS containing 0.5M and 0.25M sucrose (containing 20% FBS) for 3 min, and then placed in PBS containing 20% FBS for recovery for 5 min, and then washed three times with mature medium and placed in mature medium for recovery for 2 hours. • (1) Survival Rate Detection of Oocytes after Thawing
The survival rate of oocytes was detected by FDA (fluorescein diacetate) staining. The collected oocytes were incubated in TL-HEPES-0.3% BSA solution containing 2.5 μg/mL FDA for 1 min and then washed three times with TL-HEPES-0.3% BSA solution, the oocytes were placed on a petri dish and observed using a fluorescence microscope, the oocytes with green fluorescence were considered to be alive.

Data set [4] concerns porcine oocytes. The data set is described as follows: Oocyte membrane fluidity detection by FRAP. The format is cell-based. The conditions noted are these: metformin pretreatment; P<0.05. The method, then:
The membrane fluidity of oocytes was detected by fluorescence recovery after photobleaching (FRAP). The oocytes were first placed in TL-HEPES-0.3% BSA solution containing cell membrane fluorescent probe Dil, and incubated at 37° C. in the incubator containing 5% CO2 for 10 min. After incubation, the oocytes were washed three times within TL-HEPES-0.3% BSA solution, and then the oocytes were placed in a confocal dish. FRAP experiments were performed on a confocal microscope. Firstly, a bleaching area was selected, and three fluorescence images were collected before bleaching, with an interval of 5 s for each image. The bleaching fluorescence intensity was 100%, and the bleaching time was 7.93 s. Recovery time was 3 min after bleaching, and fluorescence images were collected at 5 s intervals. The fluorescence intensity of the bleaching area was statistically analyzed and the data were normalized.

Data set [5] deals with vitrified oocytes. The data set is described as follows: Ultrastructural observation of lipid droplets in oocytes (TEM). Conditions: metformin pretreatment. The format is cell-based, porcine.
Procedure: The oocytes were washed with DPBS and fixed overnight at 4° C. in a 0.1M dimethylarsenate buffer containing 2.5% (m/v) glutaraldehyde. After washing with DPBS, oocytes were fixed with 1% osmic acid, then washed with DPBS, and dehydrated in a gradient of 30%, 50%, 70%, 80%, 90%, and 100% acetone. The epoxy resin SPURR was used for embedding-polymerization, and the LKB-V slicing machine (ultra-thin slice thickness 50 nm (diamond knife)) was used for slicing, and then the double staining of uranium acetate-lead citrate was carried out on the copper mesh of the electron microscope, the copper mesh containing the sample was dried in a glass dish overnight, and the image was collected using a transmission electron microscope (TEM) at 80 kv (HITACHI, New Bio-TEM H-7500, Japan).
The subject of data set [6] is vitrified oocytes. The data set is described as follows: Mitochondrial temperature of vitrified oocytes after thawing (MTY probe). Conditions: metformin pretreatment before freezing; P<0.01. The format is cell-based, porcine. On the procedure:
as §1
The room temperature was adjusted to 25±1° C. so that the test apparatus and reagents were fully balanced, the experiment was carried out on a 37° C. thermostat, the oocytes were transferred into 20% EG solution for 3 min, and then transferred into the vitrification solution EDFS40 for 30-40 s, the oocytes were then placed on the cryocarrier Cryotop. […]
The effect of metformin pretreatment on the mitochondrial temperature of vitrified oocytes was further analyzed.

Where [7] appears, read: 1 μM UK5099 vs control group, after parthenogenetic activation.
The mark [8] stands for this setting: 2 μM UK5099 vs control group, after parthenogenetic activation.
The mark [9] stands for this setting: UK5099 0.5 μM, 1 μM, 2 μM, 4 μM.
[10] abbreviates: rotenone-treated group vs control group, after parthenogenetic activation, P<0.01.

Values joined by “and” are separate entries in the source; they are usually repeats but may differ in a detail not shown here. Identical values can stand only once.

Regarding `N#C/C(=C\c1cn(-c2ccccc2)c2ccccc12)C(=O)O` [UK5099], the mitochondrial temperature result in the data set with porcine oocytes [1] (1 μM UK5099 treatment for 1 h, P<0.05) is “significantly reduced”. Moreover, the mitochondrial temperature result with porcine oocytes [1] (2 μM UK5099 treatment for 1 h, P<0.01) was “significantly reduced”. In the data set with porcine oocytes [2] (setting [7]), the blastocyst rate result is listed as “not significantly different” and the cleavage rate result is on record as “not significantly different”. In the data set with porcine oocytes [2] (setting [8]), the blastocyst rate entry is on record as “not significantly different” and the cleavage rate entry is recorded as “not significantly different”. Moreover, in the data set on porcine oocytes [2] (setting [9]), the “blastocyst rate, trend with concentration” value is reported as “decreased with the increase of UK5099 concentration” and the “cleavage rate, trend with concentration” value is reported as “decreased with the increase of UK5099 concentration”. The “Survival rate (%)” value in data set [3] (UK5099 pretreatment before vitrification, P>0.05) was 67.50% and 67.50^b(135/200) %.

`CN(C)C(=N)N=C(N)N` [metformin]: the mitochondrial temperature result in the data set on porcine oocytes [1] (400 μM metformin treatment for 1 h, P<0.05) is recorded as “significantly reduce mitochondrial temperature”. In addition, the cleavage rate entry with porcine oocytes [2] (metformin pretreatment group vs control group, after parthenogenetic activation, day 2) is reported as “no significant difference”. In addition, in the data set on porcine oocytes [2] (metformin pretreatment group vs control group, after parthenogenetic activation, day 7), the blastocyst development rate result was “no significant difference”. For the same compound, the “Survival rate (%)” value in data set [3] (pretreated with 400 μM metformin for 1 h before vitrification, P<0.05) is given as 81.36%; in data set [3] (pretreated with 400 μM metformin for 1 h before vitrification, P<0.05, listed as Metformin) it was 81.36^c(179/330) %. Besides, in the data set with porcine oocytes [4], the plasma membrane fluidity result is reported as “significantly decreased”. Further, in the data set with vitrified oocytes [5], the “size of lipid droplets in oocytes” value is “close to that of the fresh group”. The “mitochondrial temperature of vitrified oocytes after thawing” value in the data set with vitrified oocytes [6] is “significantly higher than that of the conventional freezing group”.

For the compound `CC[C@H]1/C=C/C=C/C[C@@H](C)[C@H](O)[C@@](C)(O)C(=O)[C@@H](C)[C@H](O)[C@@H](C)C(=O)[C@@H](C)[C@H](O)[C@@H](C)/C=C/C(=O)O[C@@H]2[C@H](C)[C@H](CC1)O[C@]1(CC[C@H](C)[C@H](C[C@@H](C)O)O1)[C@H]2C` [oligomycin], the mitochondrial temperature entry in the data set with porcine oocytes [1] (0.5 μM oligomycin treatment for 1 h, P<0.01) was “significantly reduce”; with porcine oocytes [1] (1.5 μM oligomycin treatment for 1 h, P<0.01), “significantly reduce”; in the data set on porcine oocytes [1] (2.5 μM oligomycin treatment for 1 h, P<0.01), “significantly reduce”. In addition, the blastocyst development rate entry in the data set with porcine oocytes [2] (0.5 μM oligomycin vs control group) is reported as “significantly lower”. For the same compound, the blastocyst development result with porcine oocytes [2] (1.5 μM oligomycin vs control group, P<0.01) is listed as “significantly lower”; in the data set with porcine oocytes [2] (2.5 μM oligomycin vs control group, P<0.01) it was “significantly lower”. In addition, in the data set on porcine oocytes [2] (different concentrations of oligomycin vs control group, parthenogenetic activation, P<0.01), the cleavage rate result is reported as “significantly lower”. Besides, the “Survival rate (%)” value was 29.79% in data set [3] (oligomycin pretreatment before vitrification, P<0.05) and 29.79^c(56/188) % in data set [3] (oligomycin pretreatment before vitrification, P<0.05, listed as Oligomycin).

On to `C=C(C)[C@H]1Cc2c(ccc3c2O[C@@H]2COc4cc(OC)c(OC)cc4[C@@H]2C3=O)O1` [rotenone], for which, in the data set with porcine oocytes [1] (1 μM rotenone treatment for 1 h, P<0.01), the mitochondrial temperature entry is given as “significantly reduced”. For the same compound, in the data set on porcine oocytes [2] (setting [10]), the blastocyst development rate entry is on record as “significantly decreased” and the cleavage rate entry is listed as “significantly decreased”. Moreover, the cytotoxicity entry with porcine oocytes [2] (summary statement on rotenone) is listed as “greater cytotoxicity”.
